For 19 molecules, IC50 results are on record in ChEMBL document CHEMBL1136270 (Bioorg Med Chem Lett, 2003).

The target of one assay is MAP kinase p38 (Mus musculus, UniProt P47811+O08911+Q9WUI1+Q9Z1B7). In words: Inhibitory activity against mouse Mitogen-activated protein kinase p38. The assay is classed as protein assay.
As a reminder, the IC50 is the concentration at which inhibition is half-maximal. A higher IC50 goes with weaker potency. Regarding `O=C1NCc2nc(Sc3ccc(F)cc3F)c(N3CC4CCC3C4)cc2N1c1c(Cl)cccc1Cl` (configuration not stated), the 50% inhibitory concentration (IC50) turned out to be 5.3 nM.

In turn, `O=C1NCc2nc(Sc3ccc(F)cc3F)c(N3CC4CC3CN4C3CC3)cc2N1c1c(Cl)cccc1Cl` (configuration not stated) gave an IC50 of 3 nM.

In the case of `O=C1NCc2nc(Sc3ccc(F)cc3F)c(N3CCCCC3)cc2N1c1c(Cl)cccc1Cl`, the IC50 worked out at 4.2 nM.

As to `O=C1NCc2nc(Sc3ccc(F)cc3F)c(N3CCOCC3)cc2N1c1c(Cl)cccc1Cl`, the IC50 came out at 2 nM.

The molecule `O=C1NCc2nc(Sc3ccc(F)cc3F)c(OC3CCNCC3)cc2N1c1c(Cl)cccc1Cl` came in with an IC50 of 11 nM.

Turning to `O=C1NCc2nc(Sc3ccc(F)cc3F)c(N3CCC(CCN4CCCC4)CC3)cc2N1c1c(Cl)cccc1Cl`, the IC50 is 6 nM.

Molecule `O=C1NCc2nc(Sc3ccc(F)cc3F)c(N3CC4CC3CN4CC3CC3)cc2N1c1c(Cl)cccc1Cl` (configuration not stated) displayed an IC50 of 3 nM.

The molecule `CN(C)CCN1CCN(c2cc3c(nc2Sc2ccc(F)cc2F)CNC(=O)N3c2c(Cl)cccc2Cl)CC1` showed an IC50 of 0.6 nM.

For the molecule `CC1CN(c2cc3c(nc2Sc2ccc(F)cc2F)CNC(=O)N3c2c(Cl)cccc2Cl)CC(C)O1` (configuration not stated), the IC50 worked out at 3 nM.

On to `CCN1CC2CC1CN2c1cc2c(nc1Sc1ccc(F)cc1F)CNC(=O)N2c1c(Cl)cccc1Cl` (configuration not stated), for which the IC50 came to 9 nM.

In the case of `O=C1NCc2nc(Sc3ccc(F)cc3F)c(N3CCNCC3)cc2N1c1c(Cl)cccc1Cl`, the IC50 turned out to be 2 nM.

As for `CC(C)N1CCN(c2cc3c(nc2Sc2ccc(F)cc2F)CNC(=O)N3c2c(Cl)cccc2Cl)CC1`, the IC50 amounted to 7 nM.

In turn, `O=C1NCc2nc(Sc3ccc(F)cc3F)c(N3CCN(CCN4CCCC4)CC3)cc2N1c1c(Cl)cccc1Cl` registered an IC50 of 1.1 nM.

The molecule `O=C1NCc2nc(Sc3ccc(F)cc3F)c(Br)cc2N1c1c(Cl)cccc1Cl` gave an IC50 of 16 nM.

For the molecule `CC(C)(C)OC(=O)N1CC2CC1CN2c1cc2c(nc1Sc1ccc(F)cc1F)CNC(=O)N2c1c(Cl)cccc1Cl` (configuration not stated), the half-inhibitory concentration (IC50) amounted to 44 nM.

As to `CC(C)N1CC2CC1CN2c1cc2c(nc1Sc1ccc(F)cc1F)CNC(=O)N2c1c(Cl)cccc1Cl` (configuration not stated), the IC50 came to 2 nM.

Molecule `CC(C)(C)OC(=O)N1CCN(c2cc3c(nc2Sc2ccc(F)cc2F)CNC(=O)N3c2c(Cl)cccc2Cl)CC1` gave an IC50 of 25 nM.

Consider `O=C1NCc2nc(Sc3ccc(F)cc3F)c(N3CC4CC3CN4)cc2N1c1c(Cl)cccc1Cl` (configuration not stated), for which the IC50 was 0.6 nM.

`O=C1NCc2nc(Sc3ccc(F)cc3F)c(NC3CCNCC3)cc2N1c1c(Cl)cccc1Cl` displayed an IC50 of 4 nM.

In the next assay the test system is THP-1. In words: Anti human TNF-alpha activity determined through TNF-alpha release was measured in the supernatants by ELISA.; not active at a concentration of <10 uM. Format: functional, cell-based. (An ELISA detects its analyte on a solid surface through an enzyme-linked reagent.)
As for `O=C1NCc2nc(Sc3ccc(F)cc3F)c(Br)cc2N1c1c(Cl)cccc1Cl`, the IC50 entry was “Not Active”.

In another assay the test system is THP-1. In words: Anti human TNF-alpha activity determined through TNF-alpha release was measured in the supernatants by ELISA; not active at a concentration of <10 uM. Format: functional, cell-based.
As for `CC(C)(C)OC(=O)N1CC2CC1CN2c1cc2c(nc1Sc1ccc(F)cc1F)CNC(=O)N2c1c(Cl)cccc1Cl` (configuration not stated), the half-inhibitory concentration (IC50) result was “Not Active”.

With `CC(C)(C)OC(=O)N1CCN(c2cc3c(nc2Sc2ccc(F)cc2F)CNC(=O)N3c2c(Cl)cccc2Cl)CC1`, the IC50 entry was “Not Active”.
